Reference: patent US8372854B2, “Pyrrolo[2,3-D]pyrimidine compounds” (Pfizer Inc., priority 2009, dated 2013)

Legend:
Format in all cases: biochemical
JAK3 = target: T1, JAK3 (Homo sapiens, UniProt P52333); assay: JAK enzymatic assay (peptide mobility shift), JAK3; settings: recombinant JAK3 1 nM, ATP 4 μM, 1 μM JAKtide peptide, 90 minutes
T1 construct: purchased Invitrogen Corporation, Madison, Wis; PV3855
T1 sequence (P52333 1-1124): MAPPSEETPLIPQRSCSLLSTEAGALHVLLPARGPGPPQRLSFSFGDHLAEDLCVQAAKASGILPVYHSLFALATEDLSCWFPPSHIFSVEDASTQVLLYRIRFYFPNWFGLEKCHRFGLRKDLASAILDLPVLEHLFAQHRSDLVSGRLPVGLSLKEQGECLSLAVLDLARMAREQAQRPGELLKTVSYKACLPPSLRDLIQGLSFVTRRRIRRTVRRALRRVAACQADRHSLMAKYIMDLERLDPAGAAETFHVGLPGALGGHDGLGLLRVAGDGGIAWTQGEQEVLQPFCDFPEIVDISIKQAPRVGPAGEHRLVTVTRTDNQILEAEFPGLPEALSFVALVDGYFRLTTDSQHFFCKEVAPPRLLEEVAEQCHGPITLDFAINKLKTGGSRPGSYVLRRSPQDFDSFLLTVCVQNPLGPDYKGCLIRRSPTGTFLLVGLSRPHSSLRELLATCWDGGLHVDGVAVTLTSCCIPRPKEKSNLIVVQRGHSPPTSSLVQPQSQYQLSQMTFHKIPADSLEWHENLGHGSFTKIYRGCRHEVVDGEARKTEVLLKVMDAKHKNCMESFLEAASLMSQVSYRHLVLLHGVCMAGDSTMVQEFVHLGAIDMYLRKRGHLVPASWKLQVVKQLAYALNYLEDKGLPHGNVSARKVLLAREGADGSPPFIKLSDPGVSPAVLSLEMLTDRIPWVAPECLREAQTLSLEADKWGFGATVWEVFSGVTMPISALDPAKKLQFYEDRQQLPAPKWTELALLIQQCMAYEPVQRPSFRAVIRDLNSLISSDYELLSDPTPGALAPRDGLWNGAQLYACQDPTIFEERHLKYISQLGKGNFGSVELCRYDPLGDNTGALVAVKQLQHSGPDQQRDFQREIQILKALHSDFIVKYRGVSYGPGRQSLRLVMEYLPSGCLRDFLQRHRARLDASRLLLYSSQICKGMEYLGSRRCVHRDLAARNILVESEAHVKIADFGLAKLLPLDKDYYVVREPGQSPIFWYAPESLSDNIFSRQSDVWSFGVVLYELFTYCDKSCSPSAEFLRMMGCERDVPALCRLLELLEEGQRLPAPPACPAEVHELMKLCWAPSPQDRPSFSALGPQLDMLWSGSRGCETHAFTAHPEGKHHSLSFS
Text: Recombinant JAK1 (Catalog Number PV4775), JAK2 (Catalog Number PV4210) and JAK3 (Catalog Number PV3855) were purchased from (Invitrogen Corporation, Madison, Wis.). Tyk2 (His-Tyk2 (888-1182, C936S, C1142S)) used in this study was expressed and purified at Pfizer Laboratories. Adenosine 5′-triphosphate (ATP) was obtained from (Sigma Chemical Company, St. Louis, Mo.). […] Coating Reagent 3 was purchased from (Caliper Life Sciences, Hopkinton, Mass.).
(§1) A peptide mobility shift assay was used to quantify the phosphorylation of the JAKtide (JAK2 and JAK3) or the IRS-1 peptide ([…] and Tyk2). Reactions were carried out in a 384-well plate (Matrical MP-101) in a 10 μL total volume. Reaction mixtures contained 20 mM HEPES, pH 7.4, 10 mM magnesium chloride, 0.01% bovine serum albumin (BSA), 0.0005% Tween-20, ATP (4 μM for JAK2 and JAK3, 40 μM for JAK1 and 7 μM for Tyk2)), 2% DMSO and 1 μM peptide substrate (JAKtide for JAK2 and JAK3 and IRS-1 peptide for JAK1 and Tyk2). Compounds were diluted serially in 100% dimethyl sulfoxide and tested in an 11 point dose response in duplicate or quadruplicate (200 nl of compound/DMSO was added per 10 μL reaction). The reactions were initiated by the addition of enzyme to the final concentration of 2 nM JAK2, 1 nM JAK3, 12 nM Tyk2 or 20 nM JAK1. The assay was run for 240 minutes for JAK1, 150 minutes for JAK2, 90 minutes for JAK3 and 70 minutes for Tyk2. The assays were stopped at the specified times with 20 uL of 140 mM HEPES, 22.5 mM EDTA and 0.15% Coating Reagent 3. The plates were placed on a LabChip 3000 (LC3000) instrument from (Caliper Life Sciences) to measure the formation of phosphorylated peptide. Data was analyzed using Hits Well Analyzer Software from (Caliper Life Sciences) to obtain the amount of product formed.
(§2) Data was then imported into an internal application where each data point is expressed as % inhibition based on uninhibited and no enzyme controls. Dose-response data is then fit using a 4 parameter logistic equation (Equation 1) to determine an IC50.
(§3) Where max is the fitted uninhibited value, min is the fitted complete inhibition value, and s is the slope factor.

JAK2 = target: T2, JAK2 (Homo sapiens, UniProt O60674); assay: JAK enzymatic assay (peptide mobility shift), JAK2; settings: recombinant JAK2 2 nM, ATP 4 μM, 1 μM JAKtide peptide, 150 minutes
T2 construct: purchased Invitrogen Corporation, Madison, Wis; PV4210
Text: (§4) Recombinant JAK1 (Catalog Number PV4775), JAK2 (Catalog Number PV4210) and JAK3 (Catalog Number PV3855) were purchased from (Invitrogen Corporation, Madison, Wis.). Tyk2 (His-Tyk2 (888-1182, C936S, C1142S)) used in this study was expressed and purified at Pfizer Laboratories. Adenosine 5′-triphosphate (ATP) was obtained from (Sigma Chemical Company, St. Louis, Mo.). The JAKtide peptide (peptide sequence, FITC-[…]) used for the JAK2 and JAK3 assays and the IRS-1 peptide (peptide sequence, 5-FAM-[…]) used for the JAK1 and Tyk2 assays were purchased from (American Peptide Company, Sunnyvale, Calif.). Coating Reagent 3 was purchased from (Caliper Life Sciences, Hopkinton, Mass.).
as §1, §2, §3

JAK1 = target: T3, JAK1 (Homo sapiens, UniProt P23458); assay: JAK enzymatic assay (peptide mobility shift), JAK1; settings: recombinant JAK1 20 nM, ATP 40 μM, 1 μM IRS-1 peptide, 240 minutes
T3 construct: purchased Invitrogen Corporation, Madison, Wis; PV4775
Text: as §4, §1, §2, §3

T2 sequence (O60674 whole entry): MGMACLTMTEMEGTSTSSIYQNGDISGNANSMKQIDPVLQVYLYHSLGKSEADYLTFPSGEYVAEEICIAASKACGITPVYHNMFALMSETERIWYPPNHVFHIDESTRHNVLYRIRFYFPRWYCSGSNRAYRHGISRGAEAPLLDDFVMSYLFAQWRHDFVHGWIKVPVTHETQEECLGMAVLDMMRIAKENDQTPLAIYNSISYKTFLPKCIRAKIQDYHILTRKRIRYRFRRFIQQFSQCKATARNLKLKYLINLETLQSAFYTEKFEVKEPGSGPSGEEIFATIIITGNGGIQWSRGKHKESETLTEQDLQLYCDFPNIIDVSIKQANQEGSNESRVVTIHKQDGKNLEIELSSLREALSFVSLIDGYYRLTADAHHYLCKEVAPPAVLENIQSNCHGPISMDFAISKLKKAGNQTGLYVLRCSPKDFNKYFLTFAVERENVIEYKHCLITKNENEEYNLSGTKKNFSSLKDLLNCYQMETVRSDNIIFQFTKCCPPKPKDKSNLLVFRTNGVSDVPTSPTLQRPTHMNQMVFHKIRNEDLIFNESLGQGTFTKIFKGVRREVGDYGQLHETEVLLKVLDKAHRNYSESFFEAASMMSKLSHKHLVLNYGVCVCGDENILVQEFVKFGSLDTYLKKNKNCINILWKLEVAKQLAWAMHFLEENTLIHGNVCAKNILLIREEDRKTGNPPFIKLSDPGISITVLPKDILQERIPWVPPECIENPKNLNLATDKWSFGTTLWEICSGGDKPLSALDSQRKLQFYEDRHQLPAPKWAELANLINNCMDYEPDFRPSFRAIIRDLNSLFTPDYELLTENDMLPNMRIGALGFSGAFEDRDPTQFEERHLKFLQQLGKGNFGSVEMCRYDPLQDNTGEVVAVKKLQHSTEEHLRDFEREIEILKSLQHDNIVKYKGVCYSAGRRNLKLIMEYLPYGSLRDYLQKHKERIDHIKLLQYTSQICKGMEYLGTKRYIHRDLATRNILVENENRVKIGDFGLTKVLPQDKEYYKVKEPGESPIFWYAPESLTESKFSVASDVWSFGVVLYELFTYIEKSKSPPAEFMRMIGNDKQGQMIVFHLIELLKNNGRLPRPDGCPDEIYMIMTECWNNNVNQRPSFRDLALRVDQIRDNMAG
T3 sequence (P23458 whole entry): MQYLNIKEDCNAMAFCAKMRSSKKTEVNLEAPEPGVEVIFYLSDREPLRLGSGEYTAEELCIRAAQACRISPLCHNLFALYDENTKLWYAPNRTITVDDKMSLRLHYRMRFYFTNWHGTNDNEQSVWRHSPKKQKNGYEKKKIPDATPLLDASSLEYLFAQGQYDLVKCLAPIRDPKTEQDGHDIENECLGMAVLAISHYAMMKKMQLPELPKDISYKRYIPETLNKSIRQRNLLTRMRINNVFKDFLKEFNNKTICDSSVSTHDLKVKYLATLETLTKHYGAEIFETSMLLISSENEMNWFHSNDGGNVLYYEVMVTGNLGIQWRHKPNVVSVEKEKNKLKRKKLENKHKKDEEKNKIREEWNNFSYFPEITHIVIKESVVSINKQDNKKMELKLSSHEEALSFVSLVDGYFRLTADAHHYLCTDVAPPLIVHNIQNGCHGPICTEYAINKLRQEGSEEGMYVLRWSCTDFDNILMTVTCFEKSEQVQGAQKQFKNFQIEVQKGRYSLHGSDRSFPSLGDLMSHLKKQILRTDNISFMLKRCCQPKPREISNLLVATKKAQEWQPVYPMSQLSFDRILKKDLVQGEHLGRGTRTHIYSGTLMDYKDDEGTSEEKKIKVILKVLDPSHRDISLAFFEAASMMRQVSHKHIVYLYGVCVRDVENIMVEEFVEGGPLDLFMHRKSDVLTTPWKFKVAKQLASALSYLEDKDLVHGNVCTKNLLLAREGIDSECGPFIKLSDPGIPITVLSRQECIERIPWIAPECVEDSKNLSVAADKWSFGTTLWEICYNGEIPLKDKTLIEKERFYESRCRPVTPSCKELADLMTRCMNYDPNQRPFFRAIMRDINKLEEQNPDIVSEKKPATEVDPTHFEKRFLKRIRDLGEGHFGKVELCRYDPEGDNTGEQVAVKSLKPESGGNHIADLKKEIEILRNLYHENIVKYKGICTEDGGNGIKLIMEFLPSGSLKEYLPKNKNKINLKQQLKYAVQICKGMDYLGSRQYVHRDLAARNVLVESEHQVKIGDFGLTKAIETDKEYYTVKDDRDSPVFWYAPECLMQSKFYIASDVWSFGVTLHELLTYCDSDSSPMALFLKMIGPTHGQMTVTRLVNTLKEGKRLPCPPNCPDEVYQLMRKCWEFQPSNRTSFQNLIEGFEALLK

| Compound | IC50 (JAK3) | IC50 (JAK2) | IC50 (JAK1) |
| --- | --- | --- | --- |
| COc1ccc(NS(=O)(=O)C[C@H]2CC[C@H](N(C)c3ncnc4[nH]ccc34)CC2)cn1 [Example 28, N-(6-methoxypyridin-3-yl)-1-{trans-4-[methyl(7H-pyrrolo[2,3-d]pyrimidin-4-yl)amino]cyclohexyl}methane-sulfonamide] | 121 nM | 22.2 nM | 8.72 nM |
| C[C@H](O)CNS(=O)(=O)C[C@H]1CC[C@H](N(C)c2ncnc3[nH]ccc23)CC1 [Example 49, N-[(2S)-2-hydroxypropyl]-1-{trans-4-[methyl(7H-pyrrolo[2,3-d]pyrimidin-4-yl)amino]cyclohexyl}-methanesulfonamide] | 526 nM | 64.2 nM | 21.4 nM |
| Cc1cnc(CNS(=O)(=O)C[C@H]2CC[C@H](N(C)c3ncnc4[nH]ccc34)CC2)cn1 [Example 45, N-[(5-methylpyrazin-2-yl)methyl]-1-{trans-4-[methyl(7H-pyrrolo[2,3-d]-pyrimidin-4-yl)amino]cyclohexyl}-methanesulfonamide] | 490 nM | 49.7 nM | 15.3 nM |
| CN(c1ncnc2[nH]ccc12)[C@H]1CC[C@H](CS(=O)(=O)Nc2ccn[nH]2)CC1 [Example 22, 1-{trans-4-[methyl(7H-pyrrolo[2,3-d]pyrimidin-4-yl)amino]cyclohexyl}-N-1H-pyrazol-5-yl-methanesulfonamide] | 241 nM | 32.4 nM | 15.2 nM |
| Cc1ccc(NS(=O)(=O)C[C@H]2CC[C@H](N(C)c3ncnc4[nH]ccc34)CC2)cn1 [Example 30, N-(6-methylpyridin-3-yl)-1-{trans-4-[methyl(7H-pyrrolo[2,3-d]pyrimidin-4-yl)amino]cyclohexyl}-methanesulfonamide] | 221 nM | 47.6 nM | 16.5 nM |
| CN(c1ncnc2[nH]ccc12)[C@H]1CC[C@H](CS(=O)(=O)N[C@H]2C[C@@H]2c2ccccc2)CC1 [Example 32, 1-{trans-4-[methyl(7H-pyrrolo[2,3-d]pyrimidin-4-yl)amino]cyclohexyl}-N-[(1S,2R)-2-phenylcyclopropyl]-methanesulfonamide] | 144 nM | 23.6 nM | 4.34 nM |
| CN(Cc1cccc(N)n1)S(=O)(=O)C[C@H]1CC[C@H](N(C)c2ncnc3[nH]ccc23)CC1 [Example 29, N-[(6-aminopyridin-2-yl)methyl]-N-methyl-1-{trans-4-[methyl(7H-pyrrolo[2,3-d]pyrimidin-4-yl)amino]cyclohexyl}-methanesulfonamide] | 514 nM | 51 nM | 16.7 nM |
| CN(c1ncnc2[nH]ccc12)[C@H]1CC[C@H](CS(=O)(=O)NCCc2cccc(Cl)c2)CC1 [Example 36, N-[2-(3-chlorophenyl)ethyl]-1-{trans-4-[methyl(7H-pyrrolo[2,3-d]pyrimidin-4-yl)amino]cyclohexyl}-methanesulfonamide] | 294 nM | 41.4 nM | 7.7 nM |
| CN(c1ncnc2[nH]ccc12)[C@H]1CC[C@H](CS(=O)(=O)NCCc2ccc(Cl)c(Cl)c2)CC1 [Example 42, N-[2-(3,4-dichlorophenyl)-ethyl]-1-{trans-4-[methyl-(7H-pyrrolo[2,3-d]pyrimidin-4-yl)amino]cyclohexyl}-methanesulfonamide] | 427 nM | 55.7 nM | 14.5 nM |
| CN(c1ncnc2[nH]ccc12)[C@H]1CC[C@@H](CS(=O)(=O)NCCc2ccccc2)CC1 [Example 53, 1-{cis-4-[methyl(7H-pyrrolo[2,3-d]pyrimidin-4-yl)amino]cyclohexyl}-N-(2-phenylethyl)-methanesulfonamide] | 119 nM | 34.7 nM | 11.5 nM |
| CN(c1ncnc2[nH]ccc12)[C@H]1CC[C@H](CS(=O)(=O)NCCc2ccc(C(F)(F)F)cc2F)CC1 [Example 13, N-{2-[2-fluoro-4-(trifluoro-methyl)phenyl]ethyl}-1-{trans-4-[methyl(7H-pyrrolo[2,3-d]pyrimidin-4-yl)amino]cyclohexyl}-methanesulfonamide] | – | 55.3 nM | 17.4 nM |

Now those with a lower IC50 (JAK2), led by results:

| IC50 (JAK3) | IC50 (JAK2) | IC50 (JAK1) | Compound |
| --- | --- | --- | --- |
| 148 nM | 20.5 nM | 4.65 nM | CN(c1ncnc2[nH]ccc12)[C@H]1CC[C@H](CS(=O)(=O)NCCc2ccccc2F)CC1 [Example 14, N-[2-(2-fluorophenyl)ethyl]-1-{trans-4-[methyl(7H-pyrrolo[2,3-d]pyrimidin-4-yl)amino]cyclohexyl}methanesulfonamide] |
| 237 nM | 20.2 nM | 23.3 nM | Cc1cc(C)nc(CNS(=O)(=O)C[C@H]2CC[C@H](N(C)c3ncnc4[nH]ccc34)CC2)n1 [Example 51, N-[(4,6-dimethylpyrimidin-2-yl)methyl]-1-{trans-4-[methyl(7H-pyrrolo[2,3-d]-pyrimidin-4-yl)amino]cyclohexyl}-methanesulfonamide] |
| 154 nM | 19 nM | 3.67 nM | CN(c1ncnc2[nH]ccc12)[C@H]1CC[C@H](CS(=O)(=O)NCCc2ccc(Cl)cc2)CC1 [Example 31, N-[2-(4-chlorophenyl)ethyl]-1-{trans-4-[methyl(7H-pyrrolo[2,3-d]pyrimidin-4-yl)amino]cyclohexyl}-methanesulfonamide] |
| 188 nM | 17 nM | 3.78 nM | COc1ccccc1CCNS(=O)(=O)C[C@H]1CC[C@H](N(C)c2ncnc3[nH]ccc23)CC1 [Example 5, N-[2-(2-methoxyphenyl)-ethyl]-1-{trans-4-[methyl-(7H-pyrrolo[2,3-d]pyrimidin-4-yl)amino]cyclohexyl}-methanesulfonamide] |
| 166 nM | 14.9 nM | 1.82 nM | CN(c1ncnc2[nH]ccc12)[C@H]1CC[C@H](CS(=O)(=O)NCCc2ccc(S(N)(=O)=O)cc2)CC1 [Example 2, 4-(2-{[({trans-4-[methyl(7H-pyrrolo[2,3-d]pyrimidin-4-yl)amino]cyclohexyl}methyl)sulfonyl]amino}ethyl)benzene-sulfonamide] |
